Laboratory results taken from patent US4918064A, “Phenyl glycines for use in reducing neurotoxic injury” (G. D. Searle & Co., priority 1987, dated 1990).

Key:
[1] = target: Quis (quisqualate) receptor; test: [3H]AMPA (QUIS) receptor binding assay, synaptic plasma membranes; conditions: [3H]AMPA 10 nM, 100 mM KSCN, 0-4° C., 10 min
Procedure: (§1) Synaptic plasma membranes (SPM) were prepared as previously described [Monahan, J. B. and Michel, J., "Identification and Characterization of an N-methyl-D-aspartate-specific L[^3 H]glutamate Recognition Site in Synaptic Plasma Membranes, J. Neurochem., 48, 1699-1708 (1987)]. The SPM were stored at a concentration of 10-15 mg/ml in 0.32M sucrose, 0.5 mM EDTA, 1 mM MgSO4, 5 mM Tris/SO4, pH 7.4, under liquid nitrogen. The identity and purity of the subcellular fractions were confirmed by both electron microscopy and marker enzymes. Protein concentrations were determined by using a modification of the method of Lowry [Ohnishi, S. T. and Barr, J. K., "A Simplified Method of Quantitating Proteins Using the Biuret and Phenol Reagents", Anal. Biochem., 86, 193-197 (1978)].
(§2) The SPM were treated identically for the [^3 H]AMPA (QUIS), [^3 H]kainate and sodium-dependent L-[^3 H]-glumatate binding assays. The SPM were thawed at room temperature, diluted twenty-fold with 50 mM Tris/acetate, pH 7.4, incubated at 37° C. for 30 minutes, and centrifuged at 100,000 g for 15 minutes. The dilution, incubation, and centrifugation was repeated a total of three times.
(§3) The basic procedure for the receptor subclass binding assays was similar. This general method involved adding the radioligand (12.5 nM L-[^3 H]glutamate; 0.5 nM [^3 H]kainate or 10 nM [^3 H]AMPA) to the appropriate concentration of the test compound and initiating the assay by the addition of ice cold synaptic plasma membranes (0.2-0.45 mg). The binding assays were performed in 1.5 mL centrifuge tubes with the total volume adjusted to 1.0 mL. .Additions of test compounds were made in 50 mM Tris/acetate, pH 7.4 and incubations were carried out at 0°-4° C. The incubation time for the NMDA and the AMPA binding assays was 10 minutes, for the kainate binding assay 60 minutes and for the sodium-dependent glutamate binding assay 15 minutes. The AMPA binding assay contained 100 mM KSCN and the sodium-dependent glutamate binding assay contained 150 mM sodium acetate in addition to the previously described reagents.
(§4) To terminate the incubation, the samples were centrifuged for 15 minutes at 12,000 g and 4° C. in a Beckman Microfuge 12. The supernatant was aspirated and the pelleted membranes dissolved in Beckman BTS-450 tissue solubilizer for a minimum of 6 hours at room temperature. Beckman MP scintillation cocktail containing 7 mL/1 acetic acid was then added and the samples counted on a Beckman LS 5800 or 3801 liquid scintillation counter with automatic corrections for quenching and counting efficiency.
(§5) Nonspecific binding was defined as the residual binding in the presence of either excess L-glutamate (0.1-0.4 mM), kainate (0.01 mM), or NMDA (0.5 mM), and was 15-25% of the total binding in the NMDA binding assay, 19-27% in the AMPA binding assay, 20-30% in the kainate binding assay and 10-15% in the sodium-dependent binding assay. Radioligand binding to the synaptic plasma membranes was analyzed using Scatchard and Hill transformations and the Ki values of the compounds determined using logit-log transformations. Calculations and regression analysis were performed using templates developed for Lotus 1, 2, 3 as previously described [Pullan, L. M. "Automated Radioligand Receptor Binding Analysis with Templates for Lotus", Computer Appln. Biosci., 3 131 (1987)]. Binding results are reported in Table II for example compounds of the invention. […]

[2] = target: KA (kainate) receptor; test: [3H]kainate receptor binding assay, synaptic plasma membranes; conditions: [3H]kainate 0.5 nM, 0-4° C., 60 min
Procedure: as §1, §2, §3, §4, §5

[3] = target: NMDA receptor; test: NMDA-specific L-[3H]glutamate receptor binding assay, synaptic plasma membranes; conditions: L-[3H]glutamate 12.5 nM, Triton X-100 treated SPM, 0-4° C., 10 min
Procedure: as §1
Prior to use in the NMDA-specific L-[^3 H]glutamate binding assay the SPM were thawed, diluted twenty fold with 50 mM Tris/acetate, pH 7.4 containing 0.04% (v/v) Triton X-100, incubated for 30 minutes at 37° C. and centrifuged as described above. The Triton X-100 treated membranes were washed with 50 mM Tris/acetate, pH 7.4 and centrifuged at 100,000 g for 15 minutes a total of four times.
as §3, §4, §5

[4] = test system: CD-1 mouse; test: In Vivo 3-MPA-Induced Convulsions (tonic hindlimb extension)
Procedure: In the CD-1 mouse, i.p. injection of 3-MPA produces clonic seizures, tonic hindlimb extension and death. Seizures begin within 2-3 minutes after injection. The dose-response for induction of tonus by 3-MPA is unusual. The incidence of tonus increases rapidly from 35 to 50 mg/kg and remains constant at a less than maximal level over a broad dose range. 3-MPA doses from 50 to 150 mg/kg produce tonus in approximately 75% of the treated mice. The incidence of death over this dose range is variable and less than maximal.
In order to test for antagonism of 3-MPA-induced tonus, the lowest dose of 3-MPA that produced tonus consistently in 75% of the animals (50 mg/kg i.p.) was chosen. Test compounds were administered subcutaneously 30-40 minutes prior to i.p. administration of 3-MPA. Immediately after 3-MPA administration, each mouse was placed in a small cage made of steel rods. The mice were then observed for the presence or absence of tonic hindlimb extension. Reduction (from 75%) in the incidence of tonic hindlimb extension was considered protection from 3-MPA-induced convulsions. The dose of the test compound varied using groups of ten mice per dose until dose response curves are constructed, and ED50 's are calculated.

[5] = test system: chick embryo retina; conditions: agonist alone, pilot experiments, 30 min; cited from earlier work

SMILES | Ki [1] | Receptor binding, KA (Ki) [2] | Ki [3] | mice with tonus produced by 3-MPA ([4]; 3-MPA 50 to 150 mg/kg i.p.) | time after injection at which seizures begin ([4]; 3-MPA i.p.) | lowest dose of 3-MPA that produced tonus consistently in 75% of the animals ([4]; i.p.) | lowest concentration required to consistently obtain fully developed retinal lesions [5]
NC(CCCCCP(=O)(O)O)C(=O)O (racemic) [D,L-AP7, D,L-2-amino-7-phosphonoheptanoic acid, reference compound] | > 300 µM | > 300 µM | 5.4 µM |  |  |  | 
N[C@H](CCCCCP(=O)(O)O)C(=O)O [D-AP7, reference compound] | > 300 µM | > 300 µM | 4 µM |  |  |  | 
O=C(O)CCS [Example 3-MPA] |  |  |  | approximately 75% | 2 to 3 min | 50 mg/kg | 
C=C(C)[C@H]1CN[C@H](C(=O)O)[C@H]1CC(=O)O [KA, Kainate] |  |  |  |  |  |  | 25 µM
CCOP(=O)(O)Cc1ccc(C(N)C(=O)O)cc1 (stereo not shown) [VII, 4-(Ethylphosphonomethyl)phenylglycine] | > 300 µM | > 300 µM | 70 µM |  |  |  | 
Cc1cc(C(N)C(=O)O)c(C)cc1CP(=O)(O)O.Cl (stereo not shown) [X, 2,5-dimethyl-4-(phosphonomethyl)phenylglycine hydrochloride] | > 300 µM | > 300 µM | 21.3 µM |  |  |  | 
